The source of these data is publication PMC4193892, “3-O-Galloylated Procyanidins from Rumex acetosa L. Inhibit the Attachment of Influenza A Virus” (PLoS ONE, 2014).

Where two headings read alike, the source gives them in different places.

Data set [1] relates to IAV(H1N1)pdm09 isolate I1. The data set can be described thus: microbe, parasite or virus in culture. The class given is cell-based, influenza A virus. Particulars: for inhibition at 2 µM / inhibition at 20 µM / inhibition at 200 µM: H1N1, 48 h, read-out: anti-IAV activity.
Data set [2] in a line: in vitro.
The subject of data set [3] is MDCK II cells. As to the kind of experiment: cells. To be noted: Canis lupus familiaris, 48 h, read-out: cell vitality.

Broadly, the IC50 is the point on the concentration scale where inhibition reaches its midpoint. Low readings indicate greater potency, high ones weaker potency. On to `Oc1cc(O)c2c(c1)O[C@H](c1ccc(O)c(O)c1)[C@@H](O)C2` [compound 1, (+)-catechin monohydrate], for which, in data set [1] (Influenza A virus, H1N1), the IC50 was more than 200 µM. Also, in data set [1] (Influenza A virus), the inhibition at 2 µM came out at 0%, the inhibition at 20 µM was found to be 0% and the inhibition at 200 µM is 0%. Also, in data set [2], the CC50 at 48 h was more than 200 µM. Also, in data set [3], the viability at 2 µM was 105 ± 3%, the viability at 20 µM was 102 ± 5% and the viability at 200 µM was found to be 119 ± 9%.

`Oc1cc(O)c2c(c1)O[C@H](c1ccc(O)c(O)c1)[C@H](O)C2` [compound 2, (−)-epicatechin] returned an IC50 in data set [1] (Influenza A virus, H1N1) of more than 200 µM. In data set [1] (Influenza A virus), the inhibition at 2 µM came out at 0%, the inhibition at 20 µM turned out to be 0% and the inhibition at 200 µM was determined as 1 ± 1%. In data set [2], this compound registered a CC50 at 48 h of more than 200 µM. Further, in data set [3], the viability at 2 µM is 101 ± 2%, the viability at 20 µM was 104 ± 4% and the viability at 200 µM came out at 124 ± 20%.

Compound `Oc1cc(O)c2c(c1)O[C@H](c1cc(O)c(O)c(O)c1)[C@@H](O)C2` [compound 3, gallocatechin] registered an IC50 in data set [1] (Influenza A virus, H1N1) not above 156 µM. Moreover, in data set [1] (Influenza A virus), the inhibition at 2 µM worked out at 0%, the inhibition at 20 µM turned out to be 0% and the inhibition at 200 µM was 66 ± 5%. The compound further returned a CC50 at 48 h in data set [2] of more than 200 µM. For the same compound, in data set [3], the viability at 2 µM is 106 ± 5%, the viability at 20 µM was 108 ± 1% and the viability at 200 µM came out at 75 ± 17%.

In data set [1] (Influenza A virus, H1N1), `Oc1cc(O)c2c(c1)O[C@H](c1cc(O)c(O)c(O)c1)[C@H](O)C2` [compound 4, epigallocatechin] gave an IC50 of more than 200 µM. For the same compound, in data set [1] (Influenza A virus), the inhibition at 2 µM was determined as 0%, the inhibition at 20 µM is 0% and the inhibition at 200 µM is 26 ± 22%. In data set [2], this compound returned a CC50 at 48 h of more than 200 µM. Further, in data set [3], the viability at 2 µM is 101 ± 4%, the viability at 20 µM was 106 ± 1% and the viability at 200 µM worked out at 86 ± 17%.

In turn, `O=C(O[C@@H]1Cc2c(O)cc(O)cc2O[C@@H]1c1ccc(O)c(O)c1)c1cc(O)c(O)c(O)c1` [compound 5, epicatechin-3-O-gallate] yielded an IC50 in data set [1] (Influenza A virus, H1N1) not above 258 µM. Moreover, in data set [1] (Influenza A virus), the inhibition at 2 µM was 0%, the inhibition at 20 µM came to 1% and the inhibition at 200 µM came to 38 ± 2%. In data set [2], the CC50 at 48 h came to 175 µM. Further, in data set [3], the viability at 2 µM was determined as 107 ± 3%, the viability at 20 µM was 106 ± 4% and the viability at 200 µM was found to be 41 ± 2%.

In turn, `Oc1cc(O)c2c(c1)O[C@H](c1ccc(O)c(O)c1)[C@H](O)[C@H]2c1c(O)cc(O)c2c1O[C@H](c1ccc(O)c(O)c1)[C@H](O)C2` [compound 7, epicatechin-(4β→8)-epicatechin] had an IC50 in data set [1] (Influenza A virus, H1N1) of more than 200 µM. In data set [1] (Influenza A virus), the inhibition at 2 µM was determined as 0%, the inhibition at 20 µM worked out at 0% and the inhibition at 200 µM stood at 1 ± 1%. The CC50 at 48 h in data set [2] (dog) was more than 200 µM. Besides, in data set [3], the viability at 2 µM was 107 ± 6%, the viability at 20 µM stood at 108 ± 9% and the viability at 200 µM was found to be 117 ± 8%.

In data set [1] (Influenza A virus, H1N1), `Oc1cc(O)c2c(c1)O[C@H](c1ccc(O)c(O)c1)[C@H](O)[C@H]2c1c(O)cc2c(c1O)C[C@@H](O)[C@@H](c1ccc(O)c(O)c1)O2` [compound 9, epicatechin-(4β→6)-epicatechin] displayed an IC50 not above 163 µM. For the same compound, in data set [1] (Influenza A virus), the inhibition at 2 µM worked out at 0%, the inhibition at 20 µM is 0% and the inhibition at 200 µM was 63 ± 4%. In addition, the CC50 at 48 h in data set [2] (dog) is more than 200 µM. Further, in data set [3], the viability at 2 µM is 100 ± 3%, the viability at 20 µM worked out at 84 ± 4% and the viability at 200 µM worked out at 57 ± 4%.

In the case of `Oc1cc(O)c2c(c1)O[C@H](c1ccc(O)c(O)c1)[C@H](O)[C@H]2c1c(O)cc(O)c2c1O[C@H](c1ccc(O)c(O)c1)[C@H](O)[C@H]2c1c(O)cc(O)c2c1O[C@H](c1ccc(O)c(O)c1)[C@H](O)C2` [compound 10, epicatechin-(4β→8)-epicatechin-(4β→8)-epicatechin], the IC50 in data set [1] (Influenza A virus, H1N1) was 123 µM. For the same compound, in data set [1] (Influenza A virus), the inhibition at 2 µM came out at 0%, the inhibition at 20 µM was determined as 0% and the inhibition at 200 µM amounted to 87 ± 5%. In addition, the CC50 at 48 h in data set [2] (dog) is more than 200 µM. In data set [3], the viability at 2 µM amounted to 104 ± 2%, the viability at 20 µM was determined as 99 ± 4% and the viability at 200 µM was 122 ± 6%.

Compound `Oc1cc(O)c2c(c1)O[C@H](c1ccc(O)c(O)c1)[C@H](O)[C@H]2c1c(O)cc(O)c2c1O[C@H](c1ccc(O)c(O)c1)[C@H](O)[C@H]2c1c(O)cc(O)c2c1O[C@H](c1ccc(O)c(O)c1)[C@H](O)[C@H]2c1c(O)cc(O)c2c1O[C@H](c1ccc(O)c(O)c1)[C@H](O)C2` [compound 11, epicatechin-(4β→8)-epicatechin-(4β→8)-epicatechin-(4β→8)-epicatechin] displayed an IC50 in data set [1] (Influenza A virus, H1N1) not above 225 µM. Moreover, in data set [1] (Influenza A virus), the inhibition at 2 µM stood at 0%, the inhibition at 20 µM was determined as 1% and the inhibition at 200 µM was 44 ± 7%. The CC50 at 48 h in data set [2] (dog) was more than 200 µM. Moreover, in data set [3], the viability at 2 µM worked out at 101 ± 6%, the viability at 20 µM amounted to 86 ± 8% and the viability at 200 µM is 54 ± 9%.

`O=C(OC[C@H]1O[C@@H](OC(=O)c2cc(O)c(O)c(O)c2)[C@H](OC(=O)c2cc(O)c(O)c(O)c2)[C@@H](OC(=O)c2cc(O)c(O)c(O)c2)[C@@H]1OC(=O)c1cc(O)c(O)c(O)c1)c1cc(O)c(O)c(O)c1` [compound 12, 1,2,3,4,6-penta-O-galloyl-β-D-glucose, reference compound] had an IC50 in data set [1] not above 22 µM. This compound registered an IC50 in data set [1] (Influenza A virus, H1N1) of 22 µM. For the same compound, in data set [1] (Influenza A virus), the inhibition at 2 µM stood at 3 ± 3%, the inhibition at 20 µM turned out to be 46 ± 9% and the inhibition at 200 µM amounted to 35 ± 1%. This compound also returned a CC50 at 48 h in data set [2] of 83 µM. For the same compound, in data set [3], the viability at 2 µM came to 91 ± 7%, the viability at 20 µM came out at 57 ± 14% and the viability at 200 µM came out at 37 ± 3%.

Take `O=C1O[C@H]2[C@@H]3OC(=O)c4cc(O)c(O)c(O)c4-c4c(cc(O)c(O)c4O)C(=O)OC[C@H]2O[C@@H](OC(=O)c2cc(O)c(O)c(O)c2)[C@@H]3OC(=O)c2cc(O)c(O)c3c2[C@@H]2C1=CC(=O)[C@](O)(O3)C2(O)O` [compound 13, geraniin, reference compound]: in data set [1] (Influenza A virus, H1N1), the IC50 is not above 388 µM. Further, in data set [1] (Influenza A virus), the inhibition at 2 µM worked out at 0%, the inhibition at 20 µM is 1 ± 1% and the inhibition at 200 µM came to 25%. This compound registered a CC50 at 48 h in data set [2] (dog) of 162 µM. In addition, in data set [3], the viability at 2 µM worked out at 99 ± 1%, the viability at 20 µM amounted to 107 ± 2% and the viability at 200 µM was found to be 35 ± 3%.

On to `O=C(O[C@@H]1O[C@@H]2COC(=O)c3cc(O)c(O)c(O)c3-c3c(cc(O)c(O)c3O)C(=O)O[C@H]([C@H]1O)[C@@H]2O)c1cc(O)c(O)c(O)c1` [compound 14, corilagin, reference compound], for which the IC50 entry in data set [1] was “uncalc. ^3”. Besides, in data set [1] (Influenza A virus), the inhibition at 2 µM came to 0%, the inhibition at 20 µM stood at 1% and the inhibition at 200 µM is 3 ± 2%. Moreover, in data set [2] (dog), the CC50 at 48 h is 120 µM. Also, in data set [3], the viability at 2 µM came out at 101 ± 1%, the viability at 20 µM turned out to be 103 ± 1% and the viability at 200 µM worked out at 8 ± 1%.

With `O=c1oc2c(O)c(O)cc3c(=O)oc4c(O)c(O)cc1c4c23` [compound 15, ellagic acid, reference compound], the IC50 in data set [1] (Influenza A virus, H1N1) is more than 200 µM. Besides, in data set [1] (Influenza A virus), the inhibition at 2 µM was 0%, the inhibition at 20 µM was 1 ± 1% and the inhibition at 200 µM worked out at 4 ± 1%. This compound also registered a CC50 at 48 h in data set [2] of more than 200 µM. Also, in data set [3], the viability at 2 µM is 106 ± 1%, the viability at 20 µM is 110 ± 3% and the viability at 200 µM amounted to 108 ± 2%.
